Experimental data from patent US7417036B2, “Crystal form of adefovir dipivoxil and its preparation” (Tianjin Kinsly Pharmaceutical Co. Ltd., priority 2002, dated 2008).
Several values for one entry are separate records, joined by “and”; a condition that tells them apart may be missing. Equal values may be shown once.

Assay: Kinetic studies of the plasma concentration in animals with different crystalline forms of AD (oral, monkeys; adefovir measured in serum by HPLC)
Assay type: in vivo, Macaques
Settings: 20 mg/kg, 20 mg/kg
Protocol: The experiment was carried out by orally administering to monkeys the drugs in order to investigate the in vivo absorption of two crystalline forms of AD: the novel crystalline AD of the present invention produced by Tianjin Kinsly pharmaceutical R & D Co. Ltd. and crystalline form I of AD prepared according to the method of GILEAD SCIENCES INC. The experiment provides useful clinical references for the application of novel crystalline AD.
Tablets of novel crystalline form of AD, white, each of which contains 10 mg of adefovir, Tianjin Kinsly pharmaceutical R&D Co. Ltd., batch number 020320.
Tablets of AD crystalline form I, white, each of which contains 10 mg of adefovir, Tianjin Kinsly pharmaceutical R&D Co. Ltd., batch number 020225.
Macaques, weighing from 5 kg to 8 kg (certificate No: 2001-03, approved by Beijing Forestry Administration in the document of [2001] 83) were provided by Xie'er Animal Health Caring Science and Technology Co. Ltd (Beijing, P. R. China).
As the pro-drug of adefovir, AD is the bis-pivaloyloxymethyl ester of adefovir, which increases the in vivo bioavailability of orally administered adefovir. AD can be rapidly metabolized into PMEA, rendering it undetectable in blood. Thus the concentration of its parent compound was measured.
Mobile phase: 0.2% phosphoric acid-methanol-B7 (97:3:0.5) degassed and filtrated through 0.45 μm milipore filter.
Stationary phase: C18-column (4.6×250 mm) packed with 5μ fillers, Tianjin Tianhe Chromatogram Inc, the column temperature from 18° C. to 22° C.
Detection: the UV detection wavelength λ=260 nm (0.01AUFS)
A given volume of serum was taken and an equal volume of 10% trichloroacetic acid was added. The mixture was shaken thoroughly and kept still for more than 30 min to precipitate the proteins, then centrifuged at 10000 rpm for 2 min. The precipitates were separated and 30 μL of the supernat was removed for injection.
The experiment was started one week after intestinal worms were dispelled from the animals. Eight animals were randomly assigned into two groups, each consisting of four animals. The animals were fasted for 12 h and were orally administered the novel crystalline form of AD for one group or crystalline form I of AD for another group at a dose of 20 mg/kg together with 200 ml of water. 2 hours after administration, the animals were fed in a fixed quantity. 2.0 ml samples of whole blood were collected from the elbow veins before administration and 10, 20, 30, 45 min and 1, 2, 4, 6, 8, 12, and 24 h after administration. The serum was separated and freeze-stored for measurement. A cross-experiment was done similarly 2 weeks later.
The pharmacokinetic parameters were calculated based on the plasma concentrations at different time points. The time to peak concentration (Tpeak) and the maximum concentration (Cmax) used the measured value. The terminal phase elimination rate constant (Ke) was obtained by fitting the linear section of the curve of logarithm of the plasma concentration of drug in terminal phase versus time and the terminal phase clearance half life time (T1/2) was calculated by dividing 0.693 by Ke. AUC0-t was calculated according to the trapezoid rule.
Apparent volume of distribution (Vd)=dosage/(AUCXKe);
Total Clearance (CL)=dosage/AUC.
Comparison of the data of the two crystalline form: Data of Cmax, Ke, T1/2 and AUC0-t were statistically processed by t test, while Tpeak was processed by non-parametric test. In addition, Comparison of bio-equivalence was carried out based on Cmax and AUC0-t by using two one-sided t test.
Eight macaques were assigned into two groups, group for the novel crystalline form and the group for crystalline form I. The animals were administered according to an open randomized crossover scheme. Afterward, adefovir concentrations in serum were measured at the predetermined time points. […]

[1] = adefovir, oral 20 mg/kg, macaques, average of 8 animals (ASD row)
[2] = adefovir, oral 20 mg/kg, macaques, average of 8 animals
[3] = adefovir, oral 20 mg/kg, macaques, individual animal No. 1-8

CC(C)(C)C(=O)OCOP(=O)(COCCn1cnc2c(N)ncnc21)OCOC(=O)C(C)(C)C [novel crystalline form]
Adefovir concentrations in serum (Plasma concentrations versus time), average (0.167 h after oral administration, macaques, average of 8 animals (ASD row)): 74.3 ng/mL | Adefovir concentrations in serum (Plasma concentrations versus time) (0.167 h after oral administration, macaques, individual animal No. 1-8): 51.8 ng/mL and 105.0 ng/mL and 103.9 ng/mL and 78.3 ng/mL and 64.9 ng/mL and 53.2 ng/mL and 60.0 ng/mL and 76.9 ng/mL | Adefovir concentrations in serum (Plasma concentrations versus time), average (0.333 h after oral administration, macaques, average of 8 animals (ASD row)): 201.4 ng/mL | Adefovir concentrations in serum (Plasma concentrations versus time) (0.333 h after oral administration, macaques, individual animal No. 1-8): 186.7 ng/mL and 258.5 ng/mL and 248.8 ng/mL and 190.1 ng/mL and 125.9 ng/mL and 154.1 ng/mL and 176.3 ng/mL and 270.7 ng/mL | Adefovir concentrations in serum (Plasma concentrations versus time), average (0.5 h after oral administration, macaques, average of 8 animals (ASD row)): 507.4 ng/mL | Adefovir concentrations in serum (Plasma concentrations versus time) (0.5 h after oral administration, macaques, individual animal No. 1-8): 952.4 ng/mL and 403.1 ng/mL and 398.3 ng/mL and 541.8 ng/mL and 396.0 ng/mL and 448.9 ng/mL and 529.4 ng/mL and 389.5 ng/mL | Adefovir concentrations in serum (Plasma concentrations versus time), average (0.75 h after oral administration, macaques, average of 8 animals (ASD row)): 392.0 ng/mL | Adefovir concentrations in serum (Plasma concentrations versus time) (0.75 h after oral administration, macaques, individual animal No. 1-8): 507.6 ng/mL and 306.8 ng/mL and 538.7 ng/mL and 360.6 ng/mL and 278.8 ng/mL and 195.6 ng/mL and 393.7 ng/mL and 55.0 ng/mL | Adefovir concentrations in serum (Plasma concentrations versus time), average (1 h after oral administration, macaques, average of 8 animals (ASD row)): 238.8 ng/mL | Adefovir concentrations in serum (Plasma concentrations versus time) (1 h after oral administration, macaques, individual animal No. 1-8): 260.3 ng/mL and 231.8 ng/mL and 374.7 ng/mL and 269.4 ng/mL and 233.5 ng/mL and 132.7 ng/mL and 273.4 ng/mL | Adefovir concentrations in serum (Plasma concentrations versus time), average (2 h after oral administration, macaques, average of 8 animals (ASD row)): 199.3 ng/mL | Adefovir concentrations in serum (Plasma concentrations versus time) (2 h after oral administration, macaques, individual animal No. 1-8): 221.6 ng/ml and 196.1 ng/ml (2×) and 241.4 ng/ml and 117.7 ng/ml and 105.3 ng/ml and 260.3 ng/ml | Adefovir concentrations in serum (Plasma concentrations versus time), average (4 h after oral administration, macaques, average of 8 animals (ASD row)): 157.3 ng/mL | Adefovir concentrations in serum (Plasma concentrations versus time) (4 h after oral administration, macaques, individual animal No. 1-8): 205.1 ng/mL and 140.9 ng/mL and 184.8 ng/mL and 198.9 ng/mL and 175.8 ng/mL and 85.0 ng/mL and 77.2 ng/mL and 191.0 ng/mL | Adefovir concentrations in serum (Plasma concentrations versus time), average (6 h after oral administration, macaques, average of 8 animals (ASD row)): 119.7 ng/mL | Adefovir concentrations in serum (Plasma concentrations versus time) (6 h after oral administration, macaques, individual animal No. 1-8): 177.0 ng/mL and 114.5 ng/mL and 95.2 ng/mL and 141.2 ng/mL and 141.3 ng/mL and 85.9 ng/mL and 57.3 ng/mL and 145.3 ng/mL | Adefovir concentrations in serum (Plasma concentrations versus time), average (8 h after oral administration, macaques, average of 8 animals (ASD row)): 102.7 ng/mL | Adefovir concentrations in serum (Plasma concentrations versus time) (8 h after oral administration, macaques, individual animal No. 1-8): 158.9 ng/mL and 96.9 ng/mL and 112.0 ng/mL and 89.4 ng/mL and 110.7 ng/mL and 79.0 ng/mL and 55.6 ng/mL and 119.2 ng/mL | Adefovir concentrations in serum (Plasma concentrations versus time), average (12 h after oral administration, macaques, average of 8 animals (ASD row)): 70.3 ng/mL | Adefovir concentrations in serum (Plasma concentrations versus time) (12 h after oral administration, macaques, individual animal No. 1-8): 112.6 ng/mL and 82.1 ng/mL and 46.1 ng/mL and 64.5 ng/mL and 44.8 ng/mL and 59.4 ng/mL and 80.5 ng/mL and 72.2 ng/mL | Adefovir concentrations in serum (Plasma concentrations versus time), average (24 h after oral administration, macaques, average of 8 animals (ASD row)): 51.7 ng/mL | Adefovir concentrations in serum (Plasma concentrations versus time) (24 h after oral administration, macaques, individual animal No. 1-8): 99.3 ng/mL and 76.3 ng/mL and 28.3 ng/mL and 53.1 ng/mL and 36.6 ng/mL and 41.6 ng/mL and 59.4 ng/mL and 19.2 ng/mL | Vd (adefovir apparent volume of distribution, oral 20 mg/kg, macaques, individual animal No. 1-8): 147.5 L and 211.8 L and 89.1 L and 115.1 L and 112.4 L and 265.9 L and 224.6 L and 67.1 L | CL, average [1]: 8601.4 mL/h | Ke, average [1]: 0.066 L/h | T1/2, average [1]: 12.5 h | Tpeak, average [1]: 0.56 h | Vd, average [1]: 154.2 L | AUC0-t, average [2]: 2426.4 ng·h/mL | Cmax, average [2]: 545.7 ng/mL | AUC0-t, average (adefovir, oral 20 mg/kg, macaques, average of 8 animals, listed as Novel form): 2426 ng·h/mL | AUC0-t [3]: 3593.4 ng·h/mL and 2567.8 ng·h/mL and 2318.3 ng·h/mL and 2554.7 ng·h/mL and 2162.8 ng·h/mL and 1735.9 ng·h/mL and 1921.2 ng·h/mL and 2556.8 ng·h/mL | Cmax [3]: 403.1 ng/mL and 538.7 ng/mL and 541.8 ng/mL and 396.3 ng/mL and 448.9 ng/mL and 529.4 ng/mL and 555.0 ng/mL | T1/2 [3]: 18.4 h and 18.8 h and 7.2 h and 10.2 h and 8.4 h and 16.0 h and 14.9 h and 5.9 h | Tpeak [3]: 0.50 h (6×) and 0.75 h (2×) | Cmax (adefovir, oral 20 mg/kg, macaques, individual animal No. 1-8, listed as Novel form): 952.4 ng/mL and 396.2 ng/mL and 448.8 ng/mL | average AUCO-T (adefovir, oral 20 mg/kg): 2426.37 ng·h/mL | average Tpeak (adefovir, oral 20 mg/kg): 0.56 h | average apparent volume of distribution (Vc) (adefovir, oral 20 mg/kg): 19.74 L | average elimination half-life time (adefovir, oral 20 mg/kg): 12.5 h | average peak concentration (adefovir, oral 20 mg/kg): 545.69 ng/mL
